For 70 molecules, EC50 and Ki results are on record in PubChem BioAssay AID1897 (NMMLSC, 2009).

Calls of active or inactive are those of the source. No rule for the calls is given here. Bounds are passed on as bounds.

Chain of Mitogen-activated protein kinase kinase kinase 2 (Homo sapiens) + Dual specificity mitogen-activated protein kinase kinase 5 (Homo sapiens) (Q13163 whole entry, looked up): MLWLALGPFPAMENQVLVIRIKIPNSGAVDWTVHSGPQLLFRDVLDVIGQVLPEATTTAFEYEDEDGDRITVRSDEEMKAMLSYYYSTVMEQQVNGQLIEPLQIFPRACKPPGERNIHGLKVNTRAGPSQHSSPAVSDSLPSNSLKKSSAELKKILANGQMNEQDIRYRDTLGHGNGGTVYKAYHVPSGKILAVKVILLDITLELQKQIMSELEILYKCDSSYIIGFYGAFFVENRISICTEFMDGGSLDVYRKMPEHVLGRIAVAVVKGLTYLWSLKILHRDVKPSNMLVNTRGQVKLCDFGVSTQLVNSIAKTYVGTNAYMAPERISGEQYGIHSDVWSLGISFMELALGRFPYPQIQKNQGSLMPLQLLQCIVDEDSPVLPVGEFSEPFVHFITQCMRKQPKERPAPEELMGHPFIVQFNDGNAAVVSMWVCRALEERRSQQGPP
Chain of Mitogen-activated protein kinase kinase kinase 2 (Homo sapiens) + Dual specificity mitogen-activated protein kinase kinase 5 (Homo sapiens) (Q9Y2U5 whole entry, looked up): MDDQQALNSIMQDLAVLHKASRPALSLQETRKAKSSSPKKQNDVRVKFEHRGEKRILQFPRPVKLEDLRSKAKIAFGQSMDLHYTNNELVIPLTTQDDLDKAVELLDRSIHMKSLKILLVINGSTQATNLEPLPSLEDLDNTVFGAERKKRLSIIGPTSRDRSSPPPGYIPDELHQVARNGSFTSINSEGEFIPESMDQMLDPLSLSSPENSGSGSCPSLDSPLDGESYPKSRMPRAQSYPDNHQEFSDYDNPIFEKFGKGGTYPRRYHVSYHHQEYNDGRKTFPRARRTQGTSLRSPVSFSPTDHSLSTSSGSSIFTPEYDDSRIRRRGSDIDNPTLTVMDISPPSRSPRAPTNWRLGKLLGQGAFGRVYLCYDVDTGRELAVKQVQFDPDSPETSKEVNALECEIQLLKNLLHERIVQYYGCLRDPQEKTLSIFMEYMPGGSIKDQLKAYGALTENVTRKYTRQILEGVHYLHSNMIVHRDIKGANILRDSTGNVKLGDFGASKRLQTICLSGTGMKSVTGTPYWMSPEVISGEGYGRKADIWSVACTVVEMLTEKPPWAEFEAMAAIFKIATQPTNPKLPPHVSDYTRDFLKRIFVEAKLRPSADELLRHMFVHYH

One assay addresses Mitogen-activated protein kinase kinase kinase 2 (Homo sapiens) + Dual specificity mitogen-activated protein kinase kinase 5 (Homo sapiens) (UniProt Q9Y2U5+Q13163). The experiment in a line: inhibitors of MEK5 binding to MEKK2, dose response, biochemical, bead multiplex flow cytometry, wildtype (AID 1897). To be noted: MEK5-MEKK2 PB1 binding.
In the case of `O=C(Nc1ccc(C2=NCCN2)cc1)c1ccc(C(=O)Nc2ccc(C3=NCCN3)cc2)c([N+](=O)[O-])c1`, the EC50 was > 30 µM (inactive).

With `CCN(CC)CCOC(=O)c1ccc(N/C=C(/C#N)c2nc(-c3ccc(OC)cc3)cs2)cc1`, the EC50 is > 30 µM (inactive).

`COc1ccc(C(CCNCc2ccc(OC(C)C)cc2)c2ccccc2OC)cc1` (stereo not drawn): the EC50 was > 30 µM (inactive).

`Cc1cc2ccccc2n1CCNC(=O)c1ccccc1`: the EC50 was 3.02 µM.

Regarding `C#CCOCCOCCOCCNc1nc(N2CCN(C(=O)[C@H]([C@@H](C)CC)n3cc([C@@H](N)CO)nn3)CC2)nc(N2CCN(C(=O)[C@H](Cc3cc4ccccc4[nH]3)n3cc([C@@H](N)C(C)CC)nn3)CC2)n1` (stereo partly drawn), the EC50 is > 30 µM (inactive).

With `COc1ccc2nc3cc(Cl)ccc3c(Nc3cc(C(C)C)c(O)cc3C)c2c1`, the EC50 is 1.94 µM.

`CN(C)CCCn1c(SCC(=O)Nc2nc(-c3cccc(Br)c3)cs2)nc2ccccc2c1=O`: the EC50 was > 30 µM (inactive).

As to `O=C1Nc2ccc(Br)cc2/C1=N/N=C/C1=C(N2CCOCC2)C(=C\c2ccccc2)/CC1`, the EC50 was 1.87 µM.

With `O=C(NNc1c2ccccc2nc2ccccc12)c1cc2ccccc2cc1O`, the EC50 is > 30 µM (inactive).

Regarding `CCCCN(CC)CCNC(=O)c1cc2c(-c3ccc(Cl)cc3)nn(C)c2s1`, the EC50 is 14.4 µM.

As for `CN(c1ccccc1)c1ccc(/C=c2\s/c(=C(/C#N)C(=O)C(C)(C)C)n(Cc3ccco3)c2=O)cc1`, the EC50 is 0.67 µM.

On to `C#CCOCCOCCOCCNc1nc(N2CCN(C(=O)[C@H](CCCCN)n3cc([C@@H](N)CC(C)C)nn3)CC2)nc(N2CCN(C(=O)[C@H](Cc3cc4ccccc4[nH]3)n3cc([C@@H](N)Cc4ccc(O)cc4)nn3)CC2)n1`, for which the EC50 is > 30 µM (inactive).

As for `CCOC(=O)c1c(CSC(=N)N)n(-c2ccc(C)cc2)c2cc(Br)c(OC(C)=O)cc12`, the EC50 was 5.2 µM.

As for `CN(C)CCCNc1cc(C(C)(C)C)nc2c(-c3ccc(Cl)cc3)cnn12`, the EC50 is 4.35 µM.

As for `COc1ccc2nc(C)cc(N/N=C/c3cccc(OC)c3O)c2c1`, the EC50 is > 30 µM (inactive).

Turning to `COc1cccc(OC)c1-c1nn2c(-c3cc(-c4ccccc4)n[nH]3)nnc2s1`, the EC50 is 5.32 µM.

Take `CCNc1ccc2noc3c2c1C(=O)c1ccccc1-3`: the EC50 is 4.95 µM.

`C#CCOCCOCCOCCNc1nc(N2CCN(C(=O)[C@H](Cc3cc4ccccc4[nH]3)n3cc([C@@H](N)C(C)CC)nn3)CC2)nc(N2CCN(C(=O)[C@H](CCCCN)n3cc([C@@H](N)CC(C)C)nn3)CC2)n1` (stereo partly drawn): the half-maximal effective concentration (EC50) is 6.9 µM.

Turning to `C#CCOCCOCCOCCNc1nc(N2CCN(C(=O)[C@H](Cc3cc4ccccc4[nH]3)n3cc([C@@H](N)C(C)CC)nn3)CC2)nc(N2CCN(C(=O)[C@H](Cc3cc4ccccc4[nH]3)n3cc([C@@H](N)Cc4ccc(O)cc4)nn3)CC2)n1` (stereo partly drawn), the EC50 is 1.01 µM.

`C#CCOCCOCCOCCNc1nc(N2CCN(C(=O)C(Cc3cc4ccccc4[nH]3)n3cc(C(N)C(C)CC)nn3)CC2)nc(N2CCN(C(=O)C(Cc3cc4ccccc4[nH]3)n3cc(C(N)C(C)CC)nn3)CC2)n1` (stereo not drawn): the EC50 was 1.75 µM.

For the molecule `COc1ccccc1N(CN1C(=O)c2ccccc2C1=O)C(=O)c1cccc(C)c1`, the EC50 was > 30 µM (inactive).

Consider `Nc1ccc2nc(-c3ccc(-c4nc5ccc(N)cc5[nH]4)cc3)[nH]c2c1`, for which the EC50 is > 30 µM (inactive).

For `CN1CCN(CC(O)COc2ccc(C34CC5CC(CC(C5)C3)C4)cc2)CC1` (stereo not drawn), the EC50 was > 30 µM (inactive).

With `CSc1cccc(NC(=S)N(CCCN2CCCC2)Cc2cccn2Cc2ccc(Cl)cc2)c1`, the EC50 was 5.82 µM.

As to `C#CCOCCOCCOCCNc1nc(N2CCN(C(=O)C(Cc3ccc(O)cc3)n3cc(C(N)CC(C)C)nn3)CC2)nc(N2CCN(C(=O)C(Cc3cc4ccccc4[nH]3)n3cc(C(N)Cc4ccc(O)cc4)nn3)CC2)n1` (stereo not drawn), the EC50 is 6.12 µM.

For the molecule `CCCCCCCCCCCCCCCC[n+]1ccc(/C=N/O)cc1`, the EC50 was 2.94 µM.

Regarding `CCN1CCN(CCNC(=O)c2ccc(/C=C3/Sc4ccccc4N(Cc4cccc(Cl)c4)C3=O)cc2)CC1`, the EC50 is 3.78 µM.

For the molecule `CC(=O)c1c(C)[nH]c(C(=O)NC2=NCCS2)c1C`, the EC50 is > 30 µM (inactive).

As to `C#CCOCCOCCOCCNc1nc(N2CCN(C(=O)C(Cc3ccc(O)cc3)n3cc(C(N)CC(C)C)nn3)CC2)nc(N2CCN(C(=O)C(Cc3cc4ccccc4[nH]3)n3cc(C(N)C(C)CC)nn3)CC2)n1` (stereo not drawn), the EC50 was > 30 µM (inactive).

With `COc1ccccc1N1CCN(S(=O)(=O)c2ccc(Cl)s2)CC1`, the EC50 was > 30 µM (inactive).

Take `CCN1C(c2ccccc2)=C(c2ccccc2)S/C1=C\C=C1/SC(=S)N(C)C1=O`: the EC50 is 3.38 µM.

As to `CCc1ccc(Nc2n[n+](-c3ccccc3)c(-c3ccc(OCc4ccccc4)cc3)s2)cc1`, the EC50 is 5.48 µM.

`CCOC(=O)c1c(C)n(-c2ccc(C)cc2)c2ccc(OCC(O)CN3CCN(C)CC3)cc12` (stereo not drawn): the EC50 is > 30 µM (inactive).

For `CC(=O)Nc1cccc2c1C(=O)N(c1cccc(C)c1)C2=O`, the EC50 is > 30 µM (inactive).

As for `CCN1CCN(Cc2ccc(NC(=O)c3cc(NC(=O)c4cnn(-c5ccccc5)c4N)cc(OC)c3)cc2C(F)(F)F)CC1`, the EC50 is > 30 µM (inactive).

`O=C1c2ccccc2-c2onc3ccc(NCc4ccco4)c1c23`: the EC50 is > 30 µM (inactive).

As to `CCN(CC)CCOc1ccc2c(c1)C(=NNC(=O)c1ccccn1)c1cc(OCCN(CC)CC)ccc1-2`, the EC50 is 5.71 µM.

On to `N#CC(C#N)=c1ccc2c(c1)N1C(c3ccccc3)=CC(c3ccccc3)C3CCCCC31N=2` (stereo not drawn), for which the EC50 is 1.95 µM.

For the molecule `C#CCOCCOCCOCCNc1nc(N2CCN(C(=O)[C@H](Cc3ccc(O)cc3)n3cc([C@@H](N)C(C)CC)nn3)CC2)nc(N2CCN(C(=O)[C@H](Cc3cc4ccccc4[nH]3)n3cc([C@@H](N)CC(C)C)nn3)CC2)n1` (stereo partly drawn), the EC50 is > 30 µM (inactive).

As for `C/C(=N\NC(=O)c1cc(O)cc(O)c1)c1ccc(NC(=O)Cc2ccccc2)cc1`, the EC50 was > 30 µM (inactive).

For `CCN1/C(=C/c2ccc3cc(C)ccc3[n+]2CC)Sc2cc(C)c(C)cc21`, the EC50 is 2.63 µM.

As for `CCCCCCCCCCOC(=O)Cn1c(COc2cccc(OC)c2)[n+](C)c2ccccc21`, the EC50 was 4.33 µM.

Regarding `CCOC(=O)N1CCN(c2c(N3CCN(c4ccccc4F)CC3)c(=O)c2=O)CC1`, the EC50 was > 30 µM (inactive).

Take `C=CCN1C(=O)/C(=C/c2ccc(-c3ccc(F)cc3)o2)SC1=S`: the EC50 is 2.06 µM.

On to `COc1ccc2[nH]c3c(C)c4ccncc4c(C)c3c2c1`, for which the EC50 was > 30 µM (inactive).

Regarding `CC(=O)Nc1ccc(OCC(O)Cn2c3ccccc3c3ccccc32)cc1` (stereo not drawn), the EC50 was > 30 µM (inactive).

`S=C(Nc1cccc(Cl)c1)N(CCCN1CCCC1)Cc1cccn1Cc1ccc(Cl)cc1`: the EC50 was 5.75 µM.

As to `NC(=O)CSc1nnc(Cc2ccc3c(c2)OCO3)o1`, the EC50 is > 30 µM (inactive).

As for `NC(=NCCCCCCN=C(N)/N=C(\N)Nc1ccc(Cl)cc1)/N=C(\N)Nc1ccc(Cl)cc1`, the EC50 was 0.67 µM.

In the case of `Cc1cc2ccccc2n1CCNC(=O)c1ccc(Br)o1`, the EC50 is 3.48 µM.

For `C#CCOCCOCCOCCNc1nc(N2CCN(C(=O)[C@H](CCC(=O)O)n3cc(C(N)CO)nn3)CC2)nc(N2CCN(C(=O)[C@H](Cc3cc4ccccc4[nH]3)n3cc(C(N)[C@H](C)CC)nn3)CC2)n1` (stereo partly drawn), the EC50 is > 30 µM (inactive).

Take `CCN(CC)CCOC(=O)c1ccc(NC(=O)c2cn(-c3ccccc3)nc2-c2cccs2)cc1`: the EC50 is > 30 µM (inactive).

In the case of `C#CCOCCOCCOCCNc1nc(N2CCN(C(=O)[C@H](Cc3ccc(O)cc3)n3cc([C@@H](N)CC(C)C)nn3)CC2)nc(N2CCN(C(=O)[C@H](Cc3cc4ccccc4[nH]3)n3cc([C@@H](N)CC(C)C)nn3)CC2)n1`, the EC50 was 5.14 µM.

Turning to `CCCCCc1cc(=O)oc2c(C(CCN3CCCCC3)c3ccc(OC)cc3)c(OC)cc(OC)c12` (stereo not drawn), the EC50 is > 30 µM (inactive).

For the molecule `Nc1cc2nc[nH]c2cc1N`, the EC50 is 10.7 µM.

For `COc1cc(CNCCc2c[nH]c3ccccc23)ccc1OCc1ccccc1F`, the EC50 was > 30 µM (inactive).

Turning to `COc1ccc(Cn2c(SCc3ccccc3C)nc3cc(OC)c(OC)cc3c2=N)cc1`, the EC50 was > 30 µM (inactive).

For the molecule `NC(N)=N/N=C/c1ccc(OCc2ccccc2Cl)cc1`, the concentration giving a half-maximal response (EC50) was 19.2 µM.

Turning to `CCCCCCCCCCCCCCCC[n+]1cccc2ccccc21`, the EC50 was > 30 µM (inactive).

With `COC(=O)C1=C(C)N(Cc2ccccc2)C(=NCc2cccc(C(F)(F)F)c2)N[C@H]1c1cccc(F)c1`, the EC50 was 7.03 µM.

`S=c1[nH]nc(-c2ccc(Cl)cc2)n1-c1ccc2c(c1)OCCO2`: the EC50 is > 30 µM (inactive).

Take `Brc1ccc(N=C/C=C/C=C/Nc2ccc(Br)cc2)cc1`: the EC50 was > 30 µM (inactive).

Turning to `CCN(CC)CCOC(=O)c1ccc(N/C=C(/C#N)c2nc(-c3ccc4c(c3)OCO4)cs2)cc1`, the EC50 was > 30 µM (inactive).

`CCN1CCN(Cc2ccc(NC(=O)c3ccc(C)c(NC(=O)C(=O)c4c[nH]c5ccccc45)c3)cc2C(F)(F)F)CC1`: the EC50 is > 30 µM (inactive).

As to `COc1ccc(-c2[nH]ncc2CN2CCCCCCC2)c(OC)c1`, the EC50 was > 30 µM (inactive).

With `CCN1CCN(CCNC(=O)c2ccc(/C=C3/Sc4ccccc4N(Cc4cccc(C)c4)C3=O)cc2)CC1`, the EC50 was 6.61 µM.

As to `CCN(CC)CCOC(=O)c1ccc(N/C=C(/C#N)c2nc(-c3cccc(OC)c3)cs2)cc1`, the EC50 is > 30 µM (inactive).

On to `CCCN1C(=O)/C(=C\C=C2/Sc3ccccc3N2CC)SC1=S`, for which the EC50 was 3.03 µM.

With `Nc1ccc(Nc2ccccc2N)cc1`, the EC50 is 23.6 µM.

Staying with this assay, now noted: MEK5-MEKK2 PB1 binding, measured here: Ki from binding competition.
As to `Cc1cc2ccccc2n1CCNC(=O)c1ccccc1`, the Ki turned out to be 2.7 µM.

With `O=C1Nc2ccc(Br)cc2/C1=N/N=C/C1=C(N2CCOCC2)C(=C\c2ccccc2)/CC1`, the inhibitory constant (Ki) is 1.68 µM.

In the case of `CN(c1ccccc1)c1ccc(/C=c2\s/c(=C(/C#N)C(=O)C(C)(C)C)n(Cc3ccco3)c2=O)cc1`, the Ki came out at 0.6 µM.

Regarding `Cc1c2cc(O)c(=O)cc-2oc2cc(O)c(O)cc12`, the Ki amounted to 3.59 µM.

As for `COc1cccc(OC)c1-c1nn2c(-c3cc(-c4ccccc4)n[nH]3)nnc2s1`, the Ki stood at 4.76 µM.

For `CCNc1ccc2noc3c2c1C(=O)c1ccccc1-3`, the Ki worked out at 4.43 µM.

As for `CCN1C(c2ccccc2)=C(c2ccccc2)S/C1=C\C=C1/SC(=S)N(C)C1=O`, the Ki came out at 3.02 µM.

In the case of `N#CC(C#N)=c1ccc2c(c1)N1C(c3ccccc3)=CC(c3ccccc3)C3CCCCC31N=2` (stereo not drawn), the Ki was determined as 1.75 µM.

In the case of `CCN1/C(=C/c2ccc3cc(C)ccc3[n+]2CC)Sc2cc(C)c(C)cc21`, the Ki came to 2.35 µM.

Consider `C=CCN1C(=O)/C(=C/c2ccc(-c3ccc(F)cc3)o2)SC1=S`, for which the Ki was found to be 1.84 µM.

With `Cc1cc2ccccc2n1CCNC(=O)c1ccc(Br)o1`, the Ki stood at 3.12 µM.

As for `Nc1cc2nc[nH]c2cc1N`, the Ki turned out to be 9.61 µM.

As for `CCCN1C(=O)/C(=C\C=C2/Sc3ccccc3N2CC)SC1=S`, the Ki stood at 2.71 µM.

Turning to `Nc1ccc(Nc2ccccc2N)cc1`, the Ki was found to be 21.1 µM.

As a reminder, the EC50 is the concentration that produces a half-maximal response. Broadly, the Ki is a measure of affinity in units of concentration, obtained from inhibition or displacement.
